PMC9151520 (Archives of Toxicology, 2022)
“And” between values parts separate entries of the source, which are not always exact repeats. Identical values can stand only once. Counter-ions that a name gives are not always drawn. Like-named read-outs stand apart in the source and are kept apart here.

Legend:
[1] = system: p53 signaling (p53RE-bla HCT-116 cells)
[2] = system: p53 signaling (p53RE-bla HCT-116 cells); assay: cells; assay type: cell-based
[3] = system: p53 signaling (p53RE-bla HCT-116 cells); remark: listed apart in the source
[4] = read-out: p53 activation EC50, cherry pick confirmation
[5] = read-out: p53 activation EC50, primary screening
[6] = Homo sapiens, HCT-116, read-out: EC50, p53 activation, primary screening
[7] = Homo sapiens, HCT-116, read-out: Efficacy, p53 activation, primary screening
[8] = Homo sapiens, HCT-116, read-out: p53 activation EC50, cherry pick confirmation
[9] = Homo sapiens, HCT-116, read-out: p53 activation EC50, primary screening
[10] = Homo sapiens, HCT-116, read-out: p53 activation efficacy, cherry pick confirmation
[11] = Homo sapiens, HCT-116, read-out: p53 activation efficacy, primary screening

Row | Compound | p53 activation EC50, cherry pick confirmation [1] | p53 activation efficacy, cherry pick confirmation [1] | Viability EC50, cherry pick confirmation (p53RE-bla HCT-116 cells) | Viability EC50, primary screening (p53RE-bla HCT-116 cells) | Viability efficacy, cherry pick confirmation (p53RE-bla HCT-116 cells) | Viability efficacy, primary screening (p53RE-bla HCT-116 cells) | p53 activation efficacy, cherry pick confirmation [2] | p53 activation efficacy, primary screening [2] | p53 activation EC50, cherry pick confirmation [3] | p53 activation efficacy, cherry pick confirmation [3] | p53 activation EC50, primary screening [1] | p53 activation efficacy, primary screening [1] | p53 activation EC50, primary screening [3] | p53 activation efficacy, primary screening [3] | p53 activation EC50 [1] | Viability EC50 (p53RE-bla HCT-116 cells) | Viability efficacy (p53RE-bla HCT-116 cells) | p53 activation efficacy [2] | other results
1 | CCOP(=O)(OCC)Oc1ccc([N+](=O)[O-])cc1 [Paraoxon] | inactive | inactive | inactive | inactive | inactive | inactive | inactive | inactive | inactive | inactive |  |  |  |  |  |  |  |  | p53 activation EC50, cherry pick confirmation [2]: inactive; p53 activation EC50, primary screening [2]: inactive
2 | Nc1ncn([C@@H]2O[C@H](CO)[C@@H](O)[C@H]2O)c(=O)n1 [5-Azacytidine] | inactive | inactive | inactive | inactive | inactive | inactive | 71.649 | 59.244 | inactive | inactive | inactive | inactive | inactive | inactive |  |  |  |  | EC50 [2, 4]: 17.7 µM; EC50 [2, 5]: 11.2 µM
3 | PharmaGSID_48505 | inactive | inactive | inactive | inactive | inactive | inactive | 67.8753 | 66.729 | inactive | inactive | inactive | inactive | inactive | inactive |  |  |  |  | EC50 [2, 4]: 2.82 µM; EC50 [2, 5]: 0.396 µM
4 | CNC(=O)Oc1ccccc1OC(C)C [Propoxur] |  |  |  |  |  |  |  |  |  |  |  |  |  |  | inactive | inactive | inactive | inactive | p53 activation EC50 [2]: inactive; p53 activation EC50 [3]: inactive
5 | O=C(O)Cc1cc(I)c(Oc2ccc(O)c(I)c2)c(I)c1 [Tiratricol] |  |  |  |  |  |  |  |  |  |  |  |  |  |  | inactive | inactive | inactive | 79.5057 and 58.391 | p53 activation efficacy [1]: inactive; EC50 ([2]; Homo sapiens, HCT-116, read-out: p53 activation EC50): 16.5 µM; EC50 ([2]; read-out: p53 activation EC50): 10.7 µM; p53 activation EC50 [3]: inactive; p53 activation efficacy [3]: inactive
6 | CC(O)C(=O)O.CCOc1ccc2nc3cc(N)ccc3c(N)c2c1.O [Ethacridine lactate hydrate] | inactive | inactive | inactive | inactive | inactive | inactive | 145.785 | 113.254 | inactive | inactive | inactive | inactive | inactive | inactive |  |  |  |  | EC50 [2, 4]: 19.1 µM; EC50 [2, 5]: 21.5 µM
7 | CCOC(=O)c1c(N)sc2c1CCN(Cc1ccccc1)C2 [Tinoridine] |  |  |  |  |  |  |  |  |  |  |  |  |  |  | inactive | inactive | inactive | inactive | p53 activation EC50 [2]: inactive; p53 activation EC50 [3]: inactive
8 | COc1cccc2c1C(=O)c1c(O)c3c(c(O)c1C2=O)C[C@@](O)(C(=O)CO)C[C@@H]3O[C@H]1C[C@H](N)[C@H](O)[C@H](C)O1 [Adriamycin hydrochloride] |  |  |  |  |  |  |  |  |  |  |  |  |  |  |  |  |  |  | EC50, p53 activation, cherry pick confirmation [1]: inactive; EC50, p53 activation, primary screening [1]: inactive; Efficacy, p53 activation, cherry pick confirmation [1]: inactive; Efficacy, p53 activation, primary screening [1]: inactive; EC50, viability, cherry pick confirmation (p53RE-bla HCT-116 cells): inactive; EC50, viability, primary screening (p53RE-bla HCT-116 cells): inactive; Efficacy, viability, cherry pick confirmation (p53RE-bla HCT-116 cells): inactive; Efficacy, viability, primary screening (p53RE-bla HCT-116 cells): inactive; EC50 ([2]; Homo sapiens, HCT-116, read-out: EC50, p53 activation, cherry pick confirmation): 1.45 µM; EC50 [2, 6]: 0.963 µM; Emax ([2]; Homo sapiens, HCT-116, read-out: Efficacy, p53 activation, cherry pick confirmation): 335%; Emax [2, 7]: 220%; EC50, p53 activation, cherry pick confirmation [3]: inactive; EC50, p53 activation, primary screening [3]: inactive; Efficacy, p53 activation, cherry pick confirmation [3]: inactive; Efficacy, p53 activation, primary screening [3]: inactive
9 | O=C(O)Cc1ccccc1Nc1c(Cl)cccc1Cl [Diclofenac sodium] |  |  |  |  |  |  |  |  |  |  |  |  |  |  |  |  |  |  | EC50, p53 activation, cherry pick confirmation [1]: inactive; EC50, p53 activation, primary screening [1]: inactive; Efficacy, p53 activation, cherry pick confirmation [1]: inactive; Efficacy, p53 activation, primary screening [1]: inactive; EC50, viability, cherry pick confirmation (p53RE-bla HCT-116 cells): inactive; EC50, viability, primary screening (p53RE-bla HCT-116 cells): inactive; Efficacy, viability, cherry pick confirmation (p53RE-bla HCT-116 cells): inactive; Efficacy, viability, primary screening (p53RE-bla HCT-116 cells): inactive; EC50, p53 activation, cherry pick confirmation [2]: inactive; Efficacy, p53 activation, cherry pick confirmation [2]: inactive; EC50 [2, 6]: 51.3 µM; Emax [2, 7]: 38.2%; EC50, p53 activation, cherry pick confirmation [3]: inactive; EC50, p53 activation, primary screening [3]: inactive; Efficacy, p53 activation, cherry pick confirmation [3]: inactive; Efficacy, p53 activation, primary screening [3]: inactive
10 | CNC(=O)O/N=C/C(C)(C)SC [Aldicarb] |  |  |  |  |  |  |  |  |  |  |  |  |  |  | inactive | inactive | inactive | inactive | p53 activation EC50 [2]: inactive; p53 activation EC50 [3]: inactive
11 | CC(C)(C)C(=O)OCOP(=O)(COCCn1cnc2c(N)ncnc21)OCOC(=O)C(C)(C)C [Adefovir dipivoxil] | inactive | inactive | inactive | inactive | inactive | inactive |  |  | inactive | inactive | inactive | inactive | inactive | inactive |  |  |  |  | EC50 [2, 8]: 1.47 µM; EC50 [2, 9]: 5.18 µM; Emax [2, 10]: 60.8%; Emax [2, 11]: 106%
12 | c1cc(N(CC2CO2)CC2CO2)ccc1OCC1CO1 (stereo not shown) [4-(Diglycidylamino)phenyl glycidyl ether] | inactive | inactive | inactive | inactive | inactive | inactive | 85.4543 | 57.856 | inactive | inactive | inactive | inactive | inactive | inactive |  |  |  |  | EC50 [2, 4]: 23.5 µM; EC50 [2, 5]: 27.3 µM
13 | O=C(N/N=C/c1ccc([N+](=O)[O-])o1)c1ccc(O)cc1 [Nifuroxazide] | inactive | inactive | inactive | inactive | inactive | inactive |  |  | inactive | inactive | inactive | inactive | inactive | inactive |  |  |  |  | EC50 [2, 8]: 10.2 µM; EC50 [2, 9]: 19.6 µM; Emax [2, 10]: 47.4%; Emax [2, 11]: 39.6%
14 | CCS(=O)(=O)CCSP(=O)(OC)OC [Demeton-S-methylsulphon] |  |  |  |  |  |  |  |  |  |  |  |  |  |  | inactive | inactive | inactive | inactive | p53 activation EC50 [2]: inactive; EC50 [3]: 11.8 µM; p53 activation efficacy [3]: 41.936 and 34.343
15 | C[C@]12CC[C@@H]3c4ccc(O)cc4CC[C@H]3[C@@H]1CC[C@H]2O [17alpha-Estradiol] | inactive | inactive | inactive | inactive | inactive | inactive | inactive |  | inactive | inactive | inactive | inactive | inactive | inactive |  |  |  |  | p53 activation EC50, cherry pick confirmation [2]: inactive; EC50 [2, 9]: 12.3 µM; Emax [2, 11]: 54.4%
